Data set [1] deals with P-glycoprotein. It is filed as in vitro ADME. As for the experimental part:
(§1) Excised skin samples of both young and aged rats were obtained in the same way. Animals were anaesthetized intraperitoneally with chloral hydrate using a dose of 400 mg/kg. Under anesthesia, the hair of the abdominal skin was shaved off with an electric shaver, then epilated by an epilator cream (ISANA® cream from Rossmann, Burgwedel, Germany). Finally, the skin surface was washed and wiped dry. The abdominal skin was then mechanically sensitized 10 times by tape stripping (10 TS) with leucoplast (BSN Medical GmbH, Hamburg, Germany) to remove the upper layers of dead keratinocytes. The removal of the upper skin layer of the stratum corneum by adhesive tape has become a common practice in recent decades. The determination of the kinetics and penetration depth of different drugs by creating concentration–time profiles is facilitated by the use of the noninvasive method of tape stripping. Tape stripping makes it easier to evaluate the bioequivalence of topical dermatological dosage forms, and also makes it possible to reach detectable concentrations in the dermis and subcutis in preclinical animal models. […] Following these skin preparations, an approximately 1-cm, full-thickness skin incision was made in the caudal part of the abdominal area using scissors. After the first cutting with blunt Metzen scissors, fat, connecting tissue and blood vessels were carefully removed. Then, there were two options for continuing with the preparations, as follows. (1) Fresh skin preparation: Six skin disc-preparations were made from the abdominal, tape-stripped skin (approximately 3 cm in diameter each) for Franz diffusion cell study, or three skin square-preparations (approx. 1.5 cm × 1.5 cm) for skin-on-a-chip experiments. The skin preparations were stored in PPF at room temperature until the initiation of experiments, and were then placed between the donor and acceptor chambers on the cells of the Franz diffusion system or on the chip device. The stratum corneum layer of the skin contacted the test drug formulation, facing the donor chamber, while the dermal/subcutaneous surface contacted the PPF in the acceptor compartments. (2) Frozen skin preparation: Freshly prepared, tape stripped skin preparations were wrapped in an aluminum foil and stored in a deep freezer at −80 °C until the diffusion experiments. On the day of the study, the skin preparations were thawed at room temperature, and then placed on the Franz diffusion cells/chip devices in a similar way as that described for fresh skin preparation.
Hanson 6-Cell Manual Diffusion Test System-type Franz diffusion cells were used in the experiments (Hanson, ABL&E-JASCO Hungary Kft, Budapest, Hungary).
In each unit of the system, there was a heated magnetic stirrer chamber (acceptor compartment), stirred by a helical mixer (Figure 1). A magnet was placed on the bottom of the chamber and the helical mixer was connected to it. The acceptor chambers of the diffusion cells were filled with PPF. […] The diffusion surface was 1.767 cm^2. In the final step, a glass lid was placed onto the donor chambers. In each experiment, six parallel units were used and three cells of them always had the same arrangement with the same conditions. The cells were connected by plastic tubes. In these plastic connectors, distilled water at 32 °C was circulated to mimic the physiological dermal temperature. […] First, 0.5 mL samples were taken every 30 min from the acceptor compartments. After each sample collection, the removed fluid volume was replaced with PPF. Altogether, 60 samples were taken in each experiment, i.e., 10 from each unit. The collected samples were immediately placed on dry ice and stored at −80 °C until bioanalysis.
The dwell time of the transitions was 300 msec. Source conditions were as follows.

In data set [2] the test system is P-glycoprotein. As to conditions: fresh young rat skin. Here is the method: as §1, with “The stratum corneum layer of the skin contacted the test drug formulation, facing the donor chamber, while the dermal/subcutaneous surface contacted the PPF in the acceptor compartments. (2) Frozen skin preparation: Freshly prepared, tape stripped skin preparations were wrapped in an aluminum foil and stored in a deep freezer at −80 °C until the diffusion experiments. On the day of the study, the skin preparations were thawed at room temperature, and then placed on the Franz diffusion cells/chip devices in a similar way as that described for fresh skin preparation.” left out

Data set [3] deals with P-glycoprotein. The conditions noted are these: topical PSC-833; erythromycin creams.
Protocol: In the current study, a transdermal microdialysis technique was applied to investigate the skin penetration of test compounds through the dermal skin layer in anesthetized rats [24].
First, the epilation and shaving of the abdominal skin surface were performed under slight anesthesia, according to the protocol described in the ex vivo studies section.
The experiments were conducted the day after the skin preparation in order to eliminate the possible effect of the epilator cream and the dermal trauma caused by shaving. Animals were reanesthetized intraperitoneally with chloral hydrate with a dose of 400 mg/kg, and fixed in a supine position. In order to keep their body temperature at 37 °C during the experiment, they were placed on a heating pad. The abdominal skin was wiped dry and mechanically sensitized 10 times by tape-stripping with leucoplast (BSN Medical GmbH, Hamburg, Germany).
Two microdialysis probes (MAB11.8.10, Microbiotech, Stockholm, Sweden) were introduced in parallel at a distance of 2 cm through a guide needle (18G) into the dermal tissue. After the withdrawal of the guide needle, the probe membrane stayed in the dermal tissue, the position of which was previously verified by ultrasonic scanning. Probes were then fixed carefully with tape (Omnisilk, Hartmann, Germany).
The conditions of data set [4]: no source given; cited from earlier work.
The test system of another data set is P-gp. On the set-up: method as in PMID 18725258. The conditions noted are these: in vivo penetration experiments; cited from earlier work.

Regarding `CC[C@H]1OC(=O)[C@H](C)[C@@H](O[C@H]2C[C@@](C)(OC)[C@@H](O)[C@H](C)O2)[C@H](C)[C@@H](O[C@@H]2O[C@H](C)C[C@H](N(C)C)[C@H]2O)[C@](C)(O)C[C@@H](C)C(=O)[C@H](C)[C@@H](O)[C@]1(C)O` [erythromycin, Erythromycin], in the data set with P-glycoprotein [1] (2% ERY cream), the “diffusion through frozen/thawed vs fresh skin” value is on record as “enhanced compared to fresh skins” and the “permeability in aged vs young skin” value was “increased in the aged skin samples”. Besides, the “dynamics of absorption in the 270-min observation period” value in the data set on P-glycoprotein [2] (2% suspension cream) is “only the absorption phase could be reached, or the plateau was initiated”. Also, the “effect of P-gp modulation on drug absorption in vivo” value in the data set with P-glycoprotein [3] was “moderate but reproducible reduction in drug absorption”. Also, the “logP (lipophilicity)” value in data set [4] is reported as 3.06.

For rhodamine, in the data set with P-gp, the “drug distribution in the skin after topical application with lack of or inhibition of P-gp” value is listed as “decreased drug distributions therein”.

`CCC(C)n1ncn(-c2ccc(N3CCN(c4ccc(OCC5COC(Cn6cncn6)(c6ccc(Cl)cc6Cl)O5)cc4)CC3)cc2)c1=O` (stereo not shown) [itraconazole]: in the data set with P-gp, the “drug distribution in the skin after topical application with lack of or inhibition of P-gp” value was “decreased drug distributions therein”.

Consider `C=C[C@H]1C[N@@]2CC[C@H]1C[C@@H]2[C@@H](O)c1ccnc2ccc(OC)cc12` [quinidine], for which the “permeability of the controls, aged vs young skin” value with P-glycoprotein [1] (fresh skins, DMSO pretreated, 2% QND cream) was “independent of age”. For the same molecule, the “effect of P-gp inhibition on transdermal delivery” value in the data set on P-glycoprotein [2] (2% gel, PSC-833 pretreatment) was “dramatic reduction in transdermal delivery”. Further, the “plateau phase of skin penetration profile” value with P-glycoprotein [2] (2% gel, flow 4 μL/min) was in the range of 90 to 180 min.

In the case of `C/C=C/C[C@@H](C)C(=O)[C@H]1C(=O)N[C@@H](C(C)C)C(=O)N(C)CC(=O)N(C)[C@@H](CC(C)C)C(=O)N[C@@H](C(C)C)C(=O)N(C)[C@@H](CC(C)C)C(=O)N[C@@H](C)C(=O)N[C@H](C)C(=O)N(C)[C@@H](CC(C)C)C(=O)N(C)[C@@H](CC(C)C)C(=O)N(C)[C@@H](C(C)C)C(=O)N1C` [PSC-833, valspodar], the “effect of PSC-833 pretreatment on erythromycin permeability (AUC)” value with P-glycoprotein [1] (fresh skins, young and aged, 2% ERY cream, PSC-833 1 mg/mL DMSO, 100 μL, 10 min before, ANOVA, Tukey test) was “significant effect on permeability”. Further, the “effect of PSC-833 pretreatment on quinidine permeability (AUC)” value in the data set with P-glycoprotein [1] (fresh skins, young and aged, 2% QND cream, ANOVA, Tukey test) is on record as “statistically relevant effect only on aged subjects”. In addition, the “effect of P-gp inhibitor on erythromycin absorption” value in the data set with P-glycoprotein [1] (frozen aged skin, 2% ERY cream) is “opposite effect”.

The values above are taken from publication PMC7559210, “Verification of P-Glycoprotein Function at the Dermal Barrier in Diffusion Cells and Dynamic “Skin-On-A-Chip” Microfluidic Device” (Pharmaceutics, 2020).
